Experimental findings from paper PMC5549482, “Activation of Endocannabinoid Receptor 2 as a Mechanism of Propofol Pretreatment-Induced Cardioprotection against Ischemia-Reperfusion Injury in Rats” (Oxidative Medicine and Cellular Longevity, 2017) are described below.

For orientation: pIC50 means the negative decadic logarithm of the IC50, by convention in mol/L. Read a high pIC50 as a low IC50.

The target of this test is T1, fatty acid amide hydrolase (FAAH) (Homo sapiens, UniProt O00519).
T1 construct: human recombinant FAAH
T1 sequence (O00519 1-579): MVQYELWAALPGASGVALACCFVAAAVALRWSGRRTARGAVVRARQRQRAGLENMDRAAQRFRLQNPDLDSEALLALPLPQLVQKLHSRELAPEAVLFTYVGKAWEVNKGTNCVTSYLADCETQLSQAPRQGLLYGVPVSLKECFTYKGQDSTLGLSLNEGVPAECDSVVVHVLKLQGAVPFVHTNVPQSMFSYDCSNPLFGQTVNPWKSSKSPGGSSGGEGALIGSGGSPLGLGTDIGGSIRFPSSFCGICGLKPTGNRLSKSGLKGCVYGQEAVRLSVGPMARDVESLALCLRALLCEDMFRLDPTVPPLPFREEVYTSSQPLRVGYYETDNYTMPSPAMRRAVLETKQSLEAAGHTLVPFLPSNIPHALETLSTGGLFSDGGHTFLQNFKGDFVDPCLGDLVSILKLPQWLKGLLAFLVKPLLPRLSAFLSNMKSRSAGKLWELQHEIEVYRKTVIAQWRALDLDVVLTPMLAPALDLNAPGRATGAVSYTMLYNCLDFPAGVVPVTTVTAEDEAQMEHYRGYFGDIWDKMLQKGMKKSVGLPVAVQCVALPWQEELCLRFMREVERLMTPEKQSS
As to the kind of experiment: fluorescence FAAH inhibitor screening kit (Cayman), AMC arachidonoyl amide substrate, […] propofol. The format is biochemical.

pIC50: −log10 of the molar value.

Consider `CC(C)c1cccc(C(C)C)c1O` [propofol], for which the negative-log IC50 (pIC50) was about 4.55.
